Publication PMC10492782, “Exploiting the aggregation propensity of beta-lactamases to design inhibitors that induce enzyme misfolding” (Nature Communications, 2023)
Like-named read-outs stand apart in the source and are kept apart here.

Experiments:
TEM-1 = TEM-1 (Escherichia coli, UniProt P62593); type: biochemical, E. coli; set-up: His-tag (N); TEV cleavage site (N); made in house; host or cells: E. coli BL21 (DE3); conditions: static light scattering during temperature ramp, inhibitor titration
Source text: Then, we performed a thermal denaturation whilst simultaneously monitoring the intrinsic fluorescence as a measure of the folding status of the molecule (Fig. 1D and Supplementary Fig. 2D) and the static light scattering as a measure of aggregation (Fig. 1E and Supplementary Fig. 2E).
D Heat denaturation of TEM-1 monitored by intrinsic fluorescence plotted as the BaryCentric Mean (BCM) of the fluorescence emission spectrum in the presence (red) and absence (blue) of tazobactam. […] E Temperature-dependent evolution of the Right-Angle Light Scattering (RALS) intensity measured simultaneously with the data in D to monitor protein aggregation. […] F Same data as in E, but showing a dose-titration of the beta-lactamase inhibitor tazobactam.

E. coli TEM104 = test system: E. coli TEM104
Procedure: (§1) To quantify the synergy between these four peptides and penicillin G, we performed a so-called checkerboard assay, which allows us to compare the activity of two test compounds co-incubated (here peptide and a beta-lactam antibiotic), to their individual activities in isolation. […] We evaluated the synergy of the peptides with penicillin G in clinical E. coli isolates carrying the TEM (Fig. 3D) or SHV enzymes (Fig. 3E). […] The list of strains included some that harbored only TEM or SHV, but others contained additional Ambler Class A (CTX-M or OXA) or Class B (VIM and NDM) beta-lactamases.
(§2) For the analysis of synergy between the peptides and other antibiotics, a checkerboard assay was performed. Based on the MICs of the selected peptides, a checkerboard assay was designed to define their FICIs (Fractional Inhibitory Concentration Index) in combinations against different clinical isolates[53],[54]. Briefly, a total volume of 100 μL of Mueller–Hinton broth was distributed into each well of the 96-well plates. The first compound (peptide) of the combination was serially diluted vertically (128, 64, 32, 16, 8, 4, 2, 0 μg/mL) while the other drug (Beta-lactam or Kanamycin) was diluted horizontally in a 96-well plate (from 3200 to 3 μg/ mL). The total volume of each microtiter well was inoculated with 100 μL of MHB containing 1 × 10^6 CFU/mL bacteria. The plates were incubated at 37 °C for 24 h under aerobic conditions without shaking. Calculation of the FICI is used to analyze the results of the checkerboard assay by estimating the degree of synergistic effect. FICI is calculated as the sum of the individual fractional inhibitory concentrations (FICs) for each drug (where MIC A and MIC B denote the MIC of each drug alone, and MIC AA+B and MIC BA+B denote the concentrations of A and B in the drug combination). FICI = (MIC AA+B/MIC A) + (MIC BA+B/MIC B). With FICI ≤ 0.5, the combination of antibiotics is considered as a synergistic effect, 0.5 < FICI ≤ 1 indicates additivity, FICI > 1 indicates indifference.

E. coli NDM-5b = conditions: for synergy with penicillin (in words): checkerboard, strain containing NDM5b; for FICi values: E. coli NDM-5b
Source text: (§3) As we wondered about the generality of our peptide design approach, we set out to design a peptide to inactivate a structurally unrelated beta-lactamase. To this end, we turned to the Ambler class B beta-lactamase NDM-1 that confers resistance to many beta-lactam antibiotics, including carbapenems, and strains carrying this enzyme were soon dubbed ‘superbugs’ that are only partially sensitive to colistin and tigecycline. This enzyme was first isolated from a patient in 2008[41]. By 2010 it could be detected in clinical isolates throughout the UK and India[42], and by 2015, in over 70 countries worldwide.
as §2

E. coli NDM-5a = conditions: for FICi values: E. coli NDM-5a; for synergy with penicillin (in words): checkerboard, strain containing NDM5a
Source text: as §3, §2

E. coli SHV11 = experiment: Checkerboard assay (FICI); type: cell-based, Escherichia coli; conditions: strain containing SHV-11, FICI below 0.5 = synergy
Procedure: as §1
For the analysis of synergy between the peptides and other antibiotics, a checkerboard assay was performed. Based on the MICs of the selected peptides, a checkerboard assay was designed to define their FICIs (Fractional Inhibitory Concentration Index) in combinations against different clinical isolates[53],[54]. Briefly, a total volume of 100 μL of Mueller–Hinton broth was distributed into each well of the 96-well plates. […] FICI is calculated as the sum of the individual fractional inhibitory concentrations (FICs) for each drug (where MIC A and MIC B denote the MIC of each drug alone, and MIC AA+B and MIC BA+B denote the concentrations of A and B in the drug combination). […]

E. coli strain UZ_TEM104 = conditions: broth microdilution, MHB, overnight 37 °C, peptide alone
Source text: Pept-Ins consist of a tandem repeat of the APR, each instance flanked by charged amino acids for solubility and separated by a short peptide linker[20],[21],[24] (Fig. 3A). Previous work has shown that good bacterial uptake can be achieved using one positively charged arginine residue on the N-terminal side of each APR in the tandem and two arginine residues on the C-terminal side[20],[21]. […] As before, we employed a single Pro residue as a linker between the APRs and focused on an APR length of seven, extending shorter APRs to this length by incorporating flanking amino acids unless they were obvious aggregation breakers (Arg, Lys, Asp, Glu or Pro, see Table 1).
Determination of MIC values was performed using the broth microdilution method according to the EUCAST guideline, which was performed in 96-well polystyrene flat-bottom microtiter plates (BD Biosciences). Briefly, a single colony was inoculated into 5 mL Difco™ Mueller–Hinton Broth (BD Biosciences Ref 275730) and grown to the end-exponential growth phase in a shaking incubator at 37 °C. Cultures were subsequently diluted to a MacFarland (0.5 optical density) to reach 10^6 CFU/mL in fresh MHB medium. 50 µl of different concentrations of peptides ranging from 128 to 2 µg/mL were serially diluted to the sterile 96-well plate in MHB. 50 µL of the diluted bacteria in MHB were next pipetted into 96-well plates to reach the final volume of 100 µL. The bacteria grown with the maximum concentration of carrier and medium were considered positive and negative controls, respectively. The plates were statically incubated overnight at 37 °C to allow bacterial growth. OD was measured at 590 nm using a multipurpose ultraviolet–visible plate reader, and the absorbance of the bacterial growth was measured using an absorbance reader.

[1] = molecular target: the molecule itself; experiment: Thioflavin-T and pFTAA fluorescence kinetics + DLS + transmission electron microscopy; 50 μM TEM3.2 with polyphosphate (PolyP); electron microscopy after 24 h incubation at RT; the peptide is called soluble in buffer alone

Sequence of TEM-1 (P62593 24-286 limits assumed): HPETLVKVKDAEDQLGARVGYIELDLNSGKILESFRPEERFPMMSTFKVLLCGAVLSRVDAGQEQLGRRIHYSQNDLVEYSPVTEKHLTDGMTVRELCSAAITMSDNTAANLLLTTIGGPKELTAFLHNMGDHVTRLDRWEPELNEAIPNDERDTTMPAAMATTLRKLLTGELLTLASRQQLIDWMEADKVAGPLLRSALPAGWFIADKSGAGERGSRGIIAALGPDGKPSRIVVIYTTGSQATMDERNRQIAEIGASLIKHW

Q: How did the “effect on aggregation of TEM-1, dose-response (in words)” value (TEM-1) turn out when O=C(O)C[C@@H]1CC[C@H](NC(=O)Cc2cccs2)B(O)O1 [vaborbactam] was run?
A: reduce the aggregation of the enzyme in a dose-responsive manner

Q: Ac-RLAAALMLRRPRAQILNWIRR-NH2 [NDM1-2] was tested. Which FICi values (E. coli TEM104; TEM104, Replicate1) did it give?
A: 0.75

Q: And the FICi values (E. coli TEM104; TEM104, Replicate2)?
A: 1

Q: And the FICi values (E. coli TEM104; TEM104, Replicate3)?
A: 0.5

Q: And the FICi values (E. coli TEM104; TEM104, Replicate4)?
A: 1

Q: And the FICi values (E. coli TEM104; TEM104, Replicate5)?
A: 0.72

Q: And the “synergy with penicillin (in words)” value (E. coli NDM-5b)?
A: show synergy

Q: What about the FICi values (E. coli NDM-5a; Replicate1) of the same molecule?
A: 0.375

Q: And the FICi values (E. coli NDM-5a; Replicate2)?
A: 0.36

Q: And the FICi values (E. coli NDM-5a; Replicate3)?
A: 0.25

Q: What about the FICi values (E. coli NDM-5a; Replicate4) of the same molecule?
A: 0.159

Q: And the FICi values (E. coli NDM-5a; Replicate5)?
A: 0.25

Q: What about the “synergy with penicillin (in words)” value (E. coli NDM-5a) of the same molecule?
A: show synergy

Q: Ac-RSVIIWSLGRRPRSVIIWSLGRR-NH2 [BGAL] was tested. Which “synergy with penicillin G (in words)” value (E. coli SHV11) did it give?
A: no synergy with penicillin G

Q: And the FICi values (E. coli TEM104; TEM104, Replicate1)?
A: 1

Q: What about the FICi values (E. coli TEM104; TEM104, Replicate2) of the same molecule?
A: 1

Q: And the FICi values (E. coli TEM104; TEM104, Replicate3)?
A: 1

Q: What about the FICi values (E. coli TEM104; TEM104, Replicate4) of the same molecule?
A: 1

Q: And the FICi values (E. coli TEM104; TEM104, Replicate5)?
A: 1.5

Q: And the FICi values (E. coli NDM-5b; Replicate1)?
A: 2

Q: And the FICi values (E. coli NDM-5b; Replicate2)?
A: 1

Q: And the FICi values (E. coli NDM-5b; Replicate3)?
A: 2

Q: What about the FICi values (E. coli NDM-5b; Replicate4) of the same molecule?
A: 2

Q: And the FICi values (E. coli NDM-5b; Replicate5)?
A: 1.5

Q: What about the “synergy with penicillin (in words)” value (E. coli NDM-5b) of the same molecule?
A: neither showed synergy on any of the strains used

Q: What about the FICi values (E. coli NDM-5a; Replicate1) of the same molecule?
A: 2

Q: And the FICi values (E. coli NDM-5a; Replicate2)?
A: 2

Q: What about the FICi values (E. coli NDM-5a; Replicate3) of the same molecule?
A: 2

Q: And the FICi values (E. coli NDM-5a; Replicate4)?
A: 1.5

Q: What about the FICi values (E. coli NDM-5a; Replicate5) of the same molecule?
A: 2

Q: What about the “synergy with penicillin (in words)” value (E. coli NDM-5a) of the same molecule?
A: neither showed synergy on any of the strains used

Q: What about the MIC peptide (E. coli strain UZ_TEM104) of the same molecule?
A: > 100 µg/mL

Q: What does the source list for Ac-RTAQILNWRRPRTAQILNWRR-NH2 [NDM1-1]?
A: FICi values (E. coli TEM104; TEM104, Replicate1): 0.5; FICi values (E. coli TEM104; TEM104, Replicate2): 0.78; FICi values (E. coli TEM104; TEM104, Replicate3): 0.72; FICi values (E. coli TEM104; TEM104, Replicate5): 0.75; synergy with penicillin (in words) (E. coli NDM-5b): show synergy; FICi values (E. coli NDM-5a; Replicate1): 0.37; FICi values (E. coli NDM-5a; Replicate2): 0.38; FICi values (E. coli NDM-5a; Replicate3): 0.21; FICi values (E. coli NDM-5a; Replicate4): 0.195; FICi values (E. coli NDM-5a; Replicate5): 0.25; synergy with penicillin (in words) (E. coli NDM-5a): show synergy

B1: Pept-In TEM3.2 (peptide)
peptide: Ac-RLTAFLHNRRPRLTAFLRQRR-NH2
notes: designed tandem of the TEM version (LTAFLHN) and the SHV version (LTAFLRQ) of APR 3, each flanked by Arg, with a Pro linker; also called peptide TEM3.2; source: synthetic peptide (Genscript, >90% purity; also in-house solid-phase synthesis)
Q: Does B1 bind [1]?
A: binds
